The assay has as its target T1, human serotonin transporter (hSERT) (Homo sapiens, UniProt P31645).
T1 construct: expressed in transfected cells; host or cells: HEK-293 (human embryonic kidney cells), stably transfected
The experiment in a line: Test A: uptake of 3H-serotonin into human embryonic kidney cells (HEK-293) expressing the human serotonin transporter. Format: cell-based. As to the method: Uptake of ^3H-biogenic amines into human embryonic kidney cells expressing the human serotonin (5-HT), noradrenalin or dopamine transporter
Human embryonic kidney cells (HEK-293) stably transfected with either the human serotonin transporter (hSERT), noradrenalin transporter (hNET) or dopamine transporter (hDAT) were cultured under standard cell culture techniques (cells were grown at 37°C and 5% CO2 in DMEM-culture media (supplemented with 10% dialysed foetal calf serum (FCS), 2mM 1-glutamine and 250µg/ml geneticin)). Cells were harvested for the assay to yield a cell suspension of 750,000 cells/ml.
Assays were carried out in 96-well filter bottom plates. Cells (7500 cells/assay well) were pre-incubated in standard assay buffer containing either test compound, standard inhibitor or compound vehicle (1% DMSO) for 5 minutes. Reactions were started by addition of either ^3H-Serotonin, ^3H-Noradrenaline or ^3H-Dopamine substrates. All reactions were carried out at room temperature in a shaking incubator. Incubation times were 5 minutes for the hSERT and hDAT assays and 15 minutes for the hNET assay. Reactions were terminated by removal of the reaction mixture using a vacuum manifold followed by rapid washing with ice cold assay buffer. The quantity of ^3H-substrate incorporated into the cells was then quantified.
Assay plates were dried in a microwave oven, scintillation fluid added, and radioactivity measured. Potency of test compounds was quantified as IC50 values (concentration of test compound required to inhibit the specific uptake of radiolabelled substrate into the cells by 50%).
Standard Assay Buffer Composition: • Trizma hydrochloride (26mM) • NaCl (124mM) • KCl (4.5mM) • KH2PO4 (1.2mM) • MgCl2.6H2O (1.3mM) • Ascorbic acid (1.136mM) • Glucose (5.55mM) • pH 7.40 • CaCl2 (2.8mM) • Pargyline (100µM)
Note: The pH of the buffer was adjusted to 7.40 with 1M NaOH before addition of CaCl2 and pargyline.

The mark [1] stands for this setting: inhibition of the up-take of serotonin by human serotonin transporters, HEK-293 hSERT cells, 3H-5HT (50nM), incubation 5 minutes, room temperature, read-out: IC50 value.

Counter-ions that a name gives are not always drawn. Like-named read-outs stand apart in the source and are kept apart here.

The values that follow come from patent EP1157002B1, “1,2,3,4-TETRAHYDRO-1-NAPHT[…] USEFUL IN THERAPY” (Pfizer Limited, priority 1999, dated 2000).

T1 sequence (P31645 whole entry): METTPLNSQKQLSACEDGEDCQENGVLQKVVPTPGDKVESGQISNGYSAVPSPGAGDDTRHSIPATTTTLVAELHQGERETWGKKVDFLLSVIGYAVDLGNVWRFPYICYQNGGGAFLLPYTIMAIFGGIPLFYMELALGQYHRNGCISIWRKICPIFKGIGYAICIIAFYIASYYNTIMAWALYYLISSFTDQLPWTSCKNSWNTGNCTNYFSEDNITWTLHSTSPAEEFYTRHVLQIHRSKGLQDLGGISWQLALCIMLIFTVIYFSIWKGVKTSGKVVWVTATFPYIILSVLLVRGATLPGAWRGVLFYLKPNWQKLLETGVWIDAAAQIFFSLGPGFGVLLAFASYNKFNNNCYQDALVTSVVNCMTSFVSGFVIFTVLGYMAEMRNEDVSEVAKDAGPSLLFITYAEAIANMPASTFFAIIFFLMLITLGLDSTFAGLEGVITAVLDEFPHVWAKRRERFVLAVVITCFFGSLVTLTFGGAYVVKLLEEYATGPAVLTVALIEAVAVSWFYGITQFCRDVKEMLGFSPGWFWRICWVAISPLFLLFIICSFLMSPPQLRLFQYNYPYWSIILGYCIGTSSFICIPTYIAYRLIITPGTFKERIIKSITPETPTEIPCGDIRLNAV

What is called IC50 is the concentration at which inhibition is half-maximal. On to `CN[C@H]1CC[C@@H](c2ccc(Cl)c(Cl)c2)c2ccc(CNC(N)=O)cc21` [Example 37, Cis-(1S)-N-methyl-7-((N-aminocarboxy)aminomethyl)-4-(3,4-dichlorophenyl)-1,2,3,4-tetrahydro-1-naphthalenamine hydrochloride], for which the IC50 under setting [1] is not above 100 nM.

With `CN[C@H]1CC[C@@H](c2ccc(Cl)c(Cl)c2)c2ccc(-c3ncn[nH]3)cc21` [Example 55, Cis-(1S)-N-methyl-7-(3-(1,2,4-triazolyl))-4-(3,4-dichlorophenyl)-1,2,3,4-tetrahydro-1-naphthalenamine hydrochloride], the IC50 under setting [1] was not above 100 nM.

On to `CN[C@H]1CC[C@@H](c2ccc(Cl)c(Cl)c2)c2ccc(-c3ncnn3C)cc21` [Example 56, Cis-(1S)-N-methyl-7-(3-(N(2)methyl-1,2,4-triazolyl)-4-(3,4-dichlorophenyl)-1,2,3,4-tetrahydro-1-naphthalenamine hydrochloride], for which, under setting [1], the IC50 is not above 100 nM.

For the compound `CN[C@H]1CC[C@@H](c2ccc(Cl)c(Cl)c2)c2ccc(CS(C)(=O)=O)cc21` [Example 74, Cis-(1S)-N-methyl-7-((methylsulphonyl)methyl)-4-(3,4-dichlorophenyl)-1,2,3,4-tetrahydro-1-naphthalenamine], the half-inhibitory concentration (IC50) was not above 100 nM.
